# Experimental data from paper PMC10769483, “Death by a thousand cuts through kinase inhibitor combinations that maximize selectivity and enable rational multitargeting” (eLife, 2023).
# How the values were obtained:
# [1] = system: ABL1(F317L), FYN, and LYN; experiment: MMS multiple-target analysis, Davis et al. dataset
Structure (SMILES),concentration of component in Mixture B required to inhibit all on-targets by at least 90% (CDC2L5 and TRKC) [nM],concentration of component in Mixture A required to inhibit all on-targets by at least 90% [1] [nM]
"Cc1ccc(F)c(NC(=O)Nc2ccc(-c3cccc4[nH]nc(N)c34)cc2)c1 [ABT-869, Linifanib]",226,
"COc1cc2c(Oc3ccc(NC(=O)C4(C(=O)Nc5ccc(F)cc5)CC4)cc3F)ccnc2cc1OCCCN1CCOCC1 [EXEL-2880/GSK-1363089, Foretinib]",40.0,
CSc1cccc(Nc2ncc3cc(-c4c(Cl)cccc4Cl)c(=O)n(C)c3n2)c1 [PD-173955],,4.69
"Cc1ccc(NC(=O)c2ccc(CN3CCN(C)CC3)cc2)cc1Nc1nc(-c2cccnc2)cs1 [masatinib, Masitinib]",,661
